The supplement of paper PMC13380429
± gives the standard deviation of the averaged measurements.

Key:
Conditions in all cases: 72 h
Caco-2 [1] = test: cell viability relative to DMSO; higher = less toxic
Calu-3 [2] = test: as above
HepG2 [3] = test: as above
U2OS [4] = test: as above
Vero E6 [5] = test: as above
Caco-2 [6] = test: relative viability EC50 (midpoint between 100% and the lowest measured viability); higher = less toxic
Calu-3 [7] = test: as above
HepG2 [8] = test: as above
U2OS [9] = test: as above
Vero E6 [10] = test: as above
Caco-2 [11] = test: drug sensitivity score (DSS) for viability; higher = more toxic; extreme values may be limits of the assay
Calu-3 [12] = test: as above
HepG2 [13] = test: as above
U2OS [14] = test: as above
Vero E6 [15] = test: as above

Compound	cell viability (Caco-2 [1]; 1 nM) [%]	cell viability (Caco-2 [1]; 10 nM) [%]	cell viability (Caco-2 [1]; 100 nM) [%]	cell viability (Caco-2 [1]; 1000 nM) [%]	cell viability (Caco-2 [1]; 10000 nM) [%]	cell viability (Calu-3 [2]; 1 nM) [%]	cell viability (Calu-3 [2]; 10 nM) [%]	cell viability (Calu-3 [2]; 100 nM) [%]	cell viability (Calu-3 [2]; 1000 nM) [%]	cell viability (Calu-3 [2]; 10000 nM) [%]	cell viability (HepG2 [3]; 1 nM) [%]	cell viability (HepG2 [3]; 10 nM) [%]	cell viability (HepG2 [3]; 100 nM) [%]	cell viability (HepG2 [3]; 1000 nM) [%]	cell viability (HepG2 [3]; 10000 nM) [%]	cell viability (U2OS [4]; 1 nM) [%]	cell viability (U2OS [4]; 10 nM) [%]	cell viability (U2OS [4]; 100 nM) [%]	cell viability (U2OS [4]; 1000 nM) [%]	cell viability (U2OS [4]; 10000 nM) [%]	cell viability (Vero E6 [5]; 1 nM) [%]	cell viability (Vero E6 [5]; 10 nM) [%]	cell viability (Vero E6 [5]; 100 nM) [%]	cell viability (Vero E6 [5]; 1000 nM) [%]	cell viability (Vero E6 [5]; 10000 nM) [%]	relative viability EC50 (Caco-2 [6]) [µM]	relative viability EC50 (Calu-3 [7]) [µM]	relative viability EC50 (HepG2 [8]) [µM]	relative viability EC50 (U2OS [9]) [µM]	relative viability EC50 (Vero E6 [10]) [µM]	drug sensitivity score (Caco-2 [11])	drug sensitivity score (Calu-3 [12])	drug sensitivity score (HepG2 [13])	drug sensitivity score (U2OS [14])	drug sensitivity score (Vero E6 [15])
COc1cc(C[C@H]2C(=O)OC[C@@H]2Cc2ccc(OC)c(OC)c2)ccc1O [arctigenin]	96.2	98.9	94.5	84.4	77.1	112	96.9	103	97.9	89.3	93.7	94.8	96.6	77.3	21	101	101	98.3	92	86	96	98.2	89.8	100	95	> 10	> 10	1.44	> 10	> 10	2.3	0	7.8	0.4	0
CC[C@H](C)[C@H](N)C1=N[C@H](C(=O)N[C@@H](CC(C)C)C(=O)N[C@H](CCC(=O)O)C(=O)N[C@H](C(=O)N[C@H]2CCCCNC(=O)[C@H](CC(N)=O)NC(=O)[C@@H](CC(=O)O)NC(=O)[C@H](Cc3cnc[nH]3)NC(=O)[C@@H](Cc3ccccc3)NC(=O)[C@H]([C@@H](C)CC)NC(=O)[C@@H](CCCN)NC2=O)[C@@H](C)CC)CS1 [bacitracin]	104	104	90.4	106	119	103	96.4	97.7	99.5	97.8	100	99	99.4	103	104	95.8	96.3	98.9	98.9	102	102	96.2	103	114	110	> 10	> 10	> 10	> 10	> 10	0	0	0	0	0
CC1(C)S[C@@H]2[C@H](NC(=O)Cc3ccccc3)C(=O)N2[C@H]1C(=O)O [benzylpenicillin]	80.1	101	97.6	95.3	106	88.5	104	98.8	93.4	94.2	95.9	94	116	99	98.2	96.6	101	101	104	104	99.5	97	99	98	107	> 10	> 10	> 10	> 10	> 10	0	0	0	0	0
CCCCOC(=O)c1cc2c(cn1)[nH]c1ccccc12 [beta-CCB]	95.1	95.5	106	94.9	88.9	92.2	93	107	106	91.5	117	118	105	98.4	96	102	111	99.3	105	96	99.5	97.3	101	98.7	102	> 10	> 10	> 10	> 10	> 10	0.1	0	0	0	0
CC(C)(C)[C@]1(O)CC2OC(=O)CC23C(=O)OC2OC(=O)[C@H](O)C231 (stereo not given in full) [bilobalide]	98	97.6	97.2	107	89.7	101	98.9	109	108	116	95.1	97.1	104	117	108	94.7	104	94	98.5	97.7	104	104	105	96.6	103	> 10	> 10	> 10	> 10	> 10	0	0	0	0	0
CCN1CCN(c2cc(-c3ccc(F)cc3)c3c(n2)CCCCCC3)CC1 [blonanserin]	94	108	98.3	102	95.5	89.4	93.4	94.5	111	92.7	95.1	88	92.3	92.9	92.9	100	97.3	96.4	103	92.9	98.2	101	95	93.2	102	> 10	> 10	> 10	> 10	> 10	0	0	0	0	0
O=C1C=Cc2cc(Br)ccc2C1=O [bonaphthone]	87.2	86.3	97.9	102	94.4	116	104	94.3	88	99.1	101	117	97.5	107	94.2	101	96.1	103	101	85.6	95.5	98.6	93.5	99.5	102	> 10	> 10	> 10	> 10	> 10	0	0.8	0	0.1	0
CCCC[C@H](NC(C)=O)C(=O)N[C@H]1CC(=O)NCCCC[C@@H](C(=O)O)NC(=O)[C@H](Cc2c[nH]c3ccccc23)NC(=O)[C@H](CCCNC(=N)N)NC(=O)[C@@H](Cc2ccccc2)NC(=O)[C@H](Cc2c[nH]cn2)NC1=O [bremelanotide]	114	94.4	85.7	90.8	117	99.1	104	90.8	100	96.2	115	118	95.7	102	98.9	99.9	102	95	104	101	100	102	108	99.3	107	> 10	> 10	> 10	> 10	> 10	0	0	0	0	0
O=C(NCc1ccccc1)OCCO [buramate]	96.1	105	89.9	102	88.1	99.7	97.3	95.8	94.9	91.5	106	97.8	104	86.8	85.8	99.5	100	99.7	100	100	100	102	111	92	101	> 10	> 10	> 10	> 10	> 10	0	0	1	0	0
C[S+](C)CC[C@H](N)C(=O)O [cabagin]	90.6	97.6	109	97.3	99.6	103	84.8	85.1	86.3	103	95.6	99.5	103	102	98.5	97.9	92.3	101	94.7	100	92.1	99.5	85.3	101	108	> 10	> 10	> 10	> 10	> 10	0	0	0	0	0
O=C([O-])C(O)[C@H](O)[C@@H](O)[C@H](O)[C@H](O)CO.O=C([O-])C(O)[C@H](O)[C@@H](O)[C@H](O)[C@H](O)CO.[Ca+2] (stereo not given in full) [calcium-gluceptate]	95.7 ± 8	93.6 ± 0.71	92.9 ± 8.3	98.8 ± 2.1	103.5 ± 0.14	138 ± 44	99 ± 6.2	101 ± 7.8	94.2 ± 20	97.4 ± 1.1	100 ± 12	95.1 ± 23	103 ± 6.7	100 ± 4	100 ± 8	98.9	89.9	101	95.3	106	97.2 ± 7.6	85.1 ± 15	91.5 ± 2.7	82.3 ± 16	108.3 ± 0.49	> 10	> 10	> 10	> 10	> 10	0	0	0	0	0
CCCCCOC(=O)Nc1nc(=O)n([C@@H]2O[C@H](C)[C@@H](O)[C@H]2O)cc1F [capecitabine]	107	110	103	96.1	106	99	110	91.8	98.6	101	97	104	104	99.9	96.3	96.7	103	94.3	92.6	101	102	101	99.7	95	95.6	> 10	> 10	> 10	> 10	> 10	0	0	0	0	0
C=CC1=C(C(=O)O)N2C(=O)[C@@H](NC(=O)/C(=N\O)c3csc(N)n3)[C@H]2SC1 [cefdinir]	100	98.9	90.3	101	99.2	101	91.8	92.3	102	101	110	92.9	101	93.1	97.5	94	104	94.8	102	100	104	100	99.8	97.7	99.9	> 10	> 10	> 10	> 10	> 10	0	0	0	0	0
